Data taken from patent publication US20080051413A1, “Nitrophenylpiperazine derivative of xanthine which relaxes tracheal airway and increases respiratory performance” (KAOHSIUNG MEDICAL UNIVERSITY, priority 2006, published 2008).

Key:
respiratory performance = assay: Pulmonary function after i.v. injection (RL, Cdyn, tidal volume); assay type: in vivo; conditions: 1 mg/kg i.v., guinea pig, n = 3
Method: Animals: Male Dunkin Harley guinea pigs (350-450 g) were provide by the National Laboratory Animal Breeding and Research Center (Taipei, Taiwan) and housed under conditions of constant temperature and controlled illumination. Food and water were available and libitum. The study was approved by the Animal Care and Use Committee of the Kaohsiung Medical University.
Pulmonary Function: Guinea pegs (350-450 g) were anesthetized with pentobarbital (40 mg/kg i.p.) and maintained with further i.v. doses of 2 to 5 mg/kg when required according to methods previously described (Wu B N, Lin R J, Lo Y C, Shen K P, Wang C C, Lin Y T, and Chen I J (2004) KMUP-1, a xanthine derivative, induces relaxation of guinea-pig isolated trachea: the role of the epithelium, cyclic nucleotides and K^+ channels, Br J Pharmacol 142:1105-1114). The animal was tethered in a supine position, and the trachea was cannulated below the larynx with a short tracheal cannula via a tracheotomy. Tracheal pressure was measured by a catheter connected to the side arm of the tracheal cannula. The carotid artery and jugular vein were cannulated to monitor blood pressure and heart rate and for drug administration, respectively. Throughout the experiment, the body temperature of the guinea pig was maintained at 37_. Measurements of pulmonary cardiac function were carried out as previously described (Hsu T H, Lai Y L, and Kou Y R (1998) Acetylcholine and tachykinin receptor antagonists attenuate wood smoke-induced bronchoconstriction in Guinea pigs. Eur J Pharmacol 360:175-183). Total lung resistance (RL) and dynamic lung compliance (Cdyn) were measured on a breath-by-breath basis using a computer equipped with an A/D interface (DAS 1600; Buxco Electronics, Inc., Wilmington, N.C.) and software (version 1.5.7; Buxco Electronics, Inc.). Results obtained from the computer analysis were checked for accuracy by comparison with those calculated manually.
Animals were allowed to stabilize for 10 min following surgical manipulations before the test agent was administered. Intratracheal instillation was performed using a catheter placed through the tracheal tube into the bronchial system. The catheter connected to a 1-ml syringe was inserted into the trachea cannula extending 1 cm beyond the tip of the cannula for instillation of drug or vehicle. The instillation was followed by rapid intratracheal injection of 0.5 ml of air to facilitate deposition of drug or vehicle into the lungs as in the modified methods of Chung et al. (2001)(Chung W H, Bennett B M, Racz W J, Brien J F, and […] Fischer 344 rats during aminodarone-induced pulmonary fibrosis. Am J Physiol 281:L1180-L1188). The animals were pretreated intratracheally with KMUP-3 (0.5, 1.0, and 2.0 mg/kg/150 _l of saline) or an equivalent volume (150 _l) of vehicle 15 min before TNF-_(0.01 mg/kg/300 _l saline) was instilled to induce acute bronchoconstriction. In another experiments, KMUP-3 or KMUP-1 (1.0 mg/kg i.v.) were used to compare the effects on respiratory performance, indicated by changes of tidal volume, total RL, and Cdyn.

[1] = target: T1, PDE5 purified from human platelets (Homo sapiens, UniProt O76074); assay: Phosphodiesterase activity, PDE5; assay type: biochemical; conditions: 10 _M compound, n = 3
T1 construct: PDE3 and PDE5 purified from human platelets; from tissue; host or cells: human platelets

[2] = target: T2, PDE3 purified from human platelets (Homo sapiens, UniProt Q14432); assay: Phosphodiesterase activity, PDE3; assay type: biochemical; conditions: 10 _M compound, n = 3
T2 construct: PDE3 and PDE5 purified from human platelets; from tissue; host or cells: human platelets

[3] = tested on: PDE4 purified from human U-937 pronocytic cells; assay: Phosphodiesterase activity, PDE4; assay type: biochemical; conditions: 10 _M compound, n = 3
Method: Phosphodiesterase Activity: PDE activity was determined by the method of Nicholson et al. (Nicholson C D, Challiss R A, and Shahid M (1991) Differential modulation of tissue function and therapeutic potential of selective inhibitors of cyclic nucleotide phosphodiesterase isonzymes. Trends Pharmaclo Sci 12:19-27). PDE3 and PDE5 purified from human platelets and PDE4 purified from human U-937 pronocytic cells were used. Test compound (10 _M) or vehicle was incubated with 0.2 _g of enzyme and 1 _M cAMP containing 0.01 _M [^3H]cAMP in Tris buffer, pH 7.5, for 20 min at 25_. The reaction was terminated by boiling for 2 min, and the resulting […] was converted to adenosine by the addition of 10 mg/ml snake venom nucleotidase, which is followed by a further incubation at 37_for 10 min. Unhydrolyzed cAMP was bound to AG1-X2 resin, and the remaining [^3H]adenosine in the aqueous phase was quantitated by scintillation counting.

T2 sequence (Q14432 whole entry): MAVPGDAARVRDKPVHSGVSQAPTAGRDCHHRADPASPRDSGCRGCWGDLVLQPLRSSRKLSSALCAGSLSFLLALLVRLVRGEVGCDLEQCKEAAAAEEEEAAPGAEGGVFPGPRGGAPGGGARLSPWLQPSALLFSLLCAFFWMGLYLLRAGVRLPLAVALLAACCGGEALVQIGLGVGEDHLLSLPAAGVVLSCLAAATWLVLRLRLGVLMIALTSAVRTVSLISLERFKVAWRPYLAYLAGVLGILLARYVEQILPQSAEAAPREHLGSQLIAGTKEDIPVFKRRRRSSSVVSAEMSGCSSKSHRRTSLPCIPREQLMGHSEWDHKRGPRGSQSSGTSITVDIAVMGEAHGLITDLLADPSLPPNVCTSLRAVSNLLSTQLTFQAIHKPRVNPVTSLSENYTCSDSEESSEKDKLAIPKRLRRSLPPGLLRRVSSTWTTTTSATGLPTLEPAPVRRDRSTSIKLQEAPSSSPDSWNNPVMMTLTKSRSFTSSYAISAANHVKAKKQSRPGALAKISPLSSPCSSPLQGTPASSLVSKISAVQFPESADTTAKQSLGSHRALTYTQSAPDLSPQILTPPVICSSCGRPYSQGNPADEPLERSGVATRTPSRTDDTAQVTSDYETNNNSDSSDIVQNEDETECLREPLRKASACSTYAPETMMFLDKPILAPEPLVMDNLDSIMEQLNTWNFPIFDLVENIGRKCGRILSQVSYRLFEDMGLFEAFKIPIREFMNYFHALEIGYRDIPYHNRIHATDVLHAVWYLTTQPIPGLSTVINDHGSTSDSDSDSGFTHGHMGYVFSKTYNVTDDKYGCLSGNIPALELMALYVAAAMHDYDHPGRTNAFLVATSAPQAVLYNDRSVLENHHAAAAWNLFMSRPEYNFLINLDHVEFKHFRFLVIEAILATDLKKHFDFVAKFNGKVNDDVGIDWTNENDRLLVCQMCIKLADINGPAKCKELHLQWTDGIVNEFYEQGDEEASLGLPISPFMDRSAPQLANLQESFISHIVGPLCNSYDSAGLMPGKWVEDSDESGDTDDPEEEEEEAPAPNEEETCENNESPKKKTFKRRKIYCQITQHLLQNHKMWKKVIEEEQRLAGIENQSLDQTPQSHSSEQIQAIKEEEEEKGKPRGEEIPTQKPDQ

PDE5 Inhibition [1]: 29 ± 2.5%
PDE3 inhibition [2]: 23 ± 2.2%
SMILES: Cn1c(=O)c2c(ncn2CCN2CCN(c3ccccc3Cl)CC2)n(C)c1=O [KMUP-1, reference compound]
Cdyn, Maximum change of baseline (%) (respiratory performance): 35 ± 4.5%
RL, Maximum change of baseline (%) (respiratory performance): −20 ± 3.5%
Tidal Volume, Maximum change of baseline (%) (respiratory performance): 2.8 ± 0.2%
PDE4 Inhibition [3]: 18 ± 2.3%
